Assay results: US12207673B2, “Compounds that modulate fatty acid receptor activity and pet food products containing the same” (MARS, INCORPORATED, priority 2014, dated 2025)

Legend:
[1] = test system: fGPR120; assay: fGPR120 agonist mode / PAM mode assay in CHO/NatClytin/fGpr120+Gα16 cells, Fluo8-NW, FLIPR Tetra; assay type: cell-based, feline
Protocol: Methods: CHO cells that stably express fGPR120 were used to assay dodecyl dihydrogen phosphate for activity as an fGPR120 agonist or PAM.
CHO/NatClytin/fGpr120+Gα16 (fGpr120) cells and CHO/NatClytin/mock+Gα16 (mock) cells were seeded at 5,000 cells/well. 24 hours after cell seeding, cells were loaded with 0.5×Fluo8-NW dye in standard tyrode buffer (20 μl/well) for 1 h at room temperature. The ability of dodecyl dihydrogen phosphate to activate fGPR120 expressed by the CHO cells was determined by measuring fluorescence using a FLIPR® Tetra screening system after contacting the cells with the compound in agonist mode and PAM mode according to the following protocol: • 1. […] For mock controls, 0.2μ ATP was used as the agonist.
The maximum of ΔF/F values measured using the FLIPR® Tetra system were exported and used for data analysis.
The compounds used in the experiments were dissolved 6× in 0.01% BSA (fatty acid-free) and then pre-mixed on compound plates with buffer.
Controls for agonist mode experiments—dose response curves of α-linolenic acid (FIGS. 12A and 12B): 100 μM α-linolenic acid (fGpr120 max signal), 30 μM ATP (max signal), buffer (min signal), buffer+0.01% BSA (min signal).

[2] = test system: CHO/NatClytin/mock+Gα16 (mock) cells; assay: Mock control of the agonist/PAM assay with ATP as agonist; assay type: cell-based; conditions: concentration used as min signal in PAM mode
Protocol: CHO/NatClytin/fGpr120+Gα16 (fGpr120) cells and CHO/NatClytin/mock+Gα16 (mock) cells were seeded at 5,000 cells/well. 24 hours after cell seeding, cells were loaded with 0.5×Fluo8-NW dye in standard tyrode buffer (20 μl/well) for 1 h at room temperature. The ability of dodecyl dihydrogen phosphate to activate fGPR120 expressed by the CHO cells was determined by measuring fluorescence using a FLIPR® Tetra screening system after contacting the cells with the compound in agonist mode and PAM mode according to the following protocol: • 1. […] PAM mode: injection of 3× dodecyl dihydrogen phosphate (10 μl/well), wherein fluorescence was measured for 3 min. After about 1 additional minute, injection of 3× fGPR120 agonist at a concentration corresponding to the agonist's EC20 (15 μl/well), wherein fluorescence (i.e., PAM activity) was measured for 3 min. The fGPR120 agonist was 1.5 μM α-linolenic acid. For mock controls, 0.2μ ATP was used as the agonist.
Controls for PAM mode experiments—dose response curves of α-linolenic acid (fGpr120) or ATP (mock) (FIGS. 12A and 12B): 100 μM α-linolenic acid (max signal for Gpr120), 1.5 μM α-linolenic acid (EC20, min signal for Gpr120), 30 μM ATP (max signal), 0.2 μM ATP (EC20, min signal).

Structure (SMILES): CC/C=C\C/C=C\C/C=C\CCCCCCCC(=O)O [Compound 24, (9Z,12Z,15Z)-octadeca-9,12,15-trienoic acid]
- EC20 of the fGPR120 agonist ([1]; fGpr120 cells, concentration used as min signal in PAM mode): 1.5 µM

Structure (SMILES): CCCCCCCCCCCCOP(=O)(O)O [dodecyl dihydrogen phosphate, Dodecyl dihydrogen phosphate]
- modulation of fGPR120 activity as positive allosteric modulator (PAM) ([1]; PAM mode, in the presence of an fGPR120 agonist (1.5 μM α-linolenic acid, EC20)): modulated the activity of fGPR120 as a PAM

Structure (SMILES): Nc1ncnc2c1ncn2[C@@H]1O[C@H](COP(=O)(O)OP(=O)(O)OP(=O)(O)O)[C@@H](O)[C@H]1O [ATP]
- EC20 of ATP in mock cells [2]: 0.2 µM
